From US20240092761A1, “QUINAZOLINE COMPOUNDS AND METHODS OF USE” (IAMBIC THERAPEUTICS, INC., priority 2022, published 2024)

What was measured:
OVCAR-3 cells = assay: Cell Growth Inhibition, OVCAR-3 (CellTiterGlo, 6 days); type: cell-based; settings: OVCAR-3, 6-day treatment, CellTiterGlo 2.0
Source text: (§1) MCF-7 and OVCAR-3 cells were used to evaluate the anti-proliferation activity of the CDK inhibitors. MCF-7 (ATCC, HTB-22) cells are epithelial cells from a patient with ER+ metastatic adenocarcinoma. OVCAR-3 (ATCC, HTB-161) cells were derived from malignant ascites of a patient with ovarian cancer and are known to have CCNE1 amplification. Both cell lines were maintained in RPMI media supplemented with 10% fetal bovine serum. For cell growth inhibition assay, CDK inhibitors in DMSO solution were dispensed with either Echo 655 (Beckman Coulter) or Tecan D300e (HP) into 384-well plates (Corning #3765) and the 384-well plates were UV-sterilized prior to the assay. The inhibitors were typically tested in the 10-10,000 nM concentration range with half-log serial dilutions. MCF-7 or OVCAR-3 (500 cells/30 μL/well) were added to each well using Multidrop Combi (ThermoFisher) using standard cassettes. The assay plates with cells were cultured at 37° C., 5% CO2 for 6 days. At the end of the 6-day treatment, 30 μL of CellTiterGlo 2.0 (Promega) was added to each well and the luminescent signal was read using CLARIOstar plus (BMG). The percentage of cell growth inhibition (% CGI) was calculated using the following formula % CGI=100−100×luminescencesample/luminescencecontrol. The half maximal inhibitory concentration (IC50) was determined by nonlinear curve fitting (four parameters, variable slope).

[1] = molecular target: CDK2/Cyclin E1 full length (Homo sapiens (Human), UniProt P24941); assay: CDK2/Cyclin E1 Full Length ADP-Glo Kinase Assay; type: biochemical; settings: 20 uM ATP, read-out: CDK2/ CyclinE1 IC50
Procedure: CDK2/Cyclin E1 Full Length ADP-Glo Kinase Assay
The purpose of CDK2/Cyclin E1 assay is to evaluate the inhibition (% inhibition and IC50 values) of small molecule inhibitors by using a Luminescent based ADP-Glo assay. CDK2/Cyclin E1 full length catalyzes the production of ADP from ATP. ADP-Glo assay monitors ADP producing biochemical reactions. ADP-Glo is performed in 2 steps upon completion of kinase reaction: a combined termination of kinase reaction and depletion of remaining ATP in the first step, and conversion of generated ADP to ATP and the newly produced ATP to light output using luciferase/luciferin reaction in the second step. The luminescent signal generated is proportional to the ADP concentration produced and is correlated with the kinase activity. CDK2/Cyclin E1 was purchased from Eurofins (Cat 14-475M). Typical reaction solutions (10 uL final reaction volume) contained 2% DMSO (f inhibitor), 10 mM MgCI2, 1 mM EGTA, 0.05% BSA, 2 mM DTT, 20 uM ATP (ATP Km=64.78 uM), 0.01% Brig-35, 0.75 uM substrate, and 0.328 nM wild-type full length CDK2/Cyclin E1 enzyme complex in 50 mM HEPES buffer at pH 7.5. The assay was initiated with the addition of ATP-containing substrate solution, following a 30-minute pre-incubation of enzyme and inhibitor at room temperature in the reaction mixture. The reaction was stopped after 90 minutes at room temperature by the addition of 10 uL of ADP-GLO Reagent. After a 90 minute incubation, 20 uL of Kinase Detection Reagent was added. Samples were incubated for 40 minutes, after which plate well luminescence was measured on a Envision microplate reader. The IC50 determinations were made from a plot of the fractional velocity as a function of inhibitor concentration fit to the 4 parameters IC50 equation.

CDK1/Cyclin B1 = CDK1/Cyclin B1 (Homo sapiens (Human), UniProt P06493); assay: CDK1/Cyclin B1 ADP-Glo Kinase Assay; type: biochemical; settings: 80 uM ATP
CDK1/Cyclin B1, sequence (P06493 whole entry): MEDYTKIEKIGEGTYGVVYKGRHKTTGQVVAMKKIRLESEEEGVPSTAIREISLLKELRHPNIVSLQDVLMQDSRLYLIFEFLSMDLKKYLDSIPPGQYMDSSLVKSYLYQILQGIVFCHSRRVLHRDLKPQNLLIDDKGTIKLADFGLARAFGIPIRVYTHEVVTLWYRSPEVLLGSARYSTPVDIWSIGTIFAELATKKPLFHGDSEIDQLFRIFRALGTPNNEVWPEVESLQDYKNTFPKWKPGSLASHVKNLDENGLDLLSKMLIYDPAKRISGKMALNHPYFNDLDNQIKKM
CDK1/Cyclin B1, sequence (P14635 whole entry partner): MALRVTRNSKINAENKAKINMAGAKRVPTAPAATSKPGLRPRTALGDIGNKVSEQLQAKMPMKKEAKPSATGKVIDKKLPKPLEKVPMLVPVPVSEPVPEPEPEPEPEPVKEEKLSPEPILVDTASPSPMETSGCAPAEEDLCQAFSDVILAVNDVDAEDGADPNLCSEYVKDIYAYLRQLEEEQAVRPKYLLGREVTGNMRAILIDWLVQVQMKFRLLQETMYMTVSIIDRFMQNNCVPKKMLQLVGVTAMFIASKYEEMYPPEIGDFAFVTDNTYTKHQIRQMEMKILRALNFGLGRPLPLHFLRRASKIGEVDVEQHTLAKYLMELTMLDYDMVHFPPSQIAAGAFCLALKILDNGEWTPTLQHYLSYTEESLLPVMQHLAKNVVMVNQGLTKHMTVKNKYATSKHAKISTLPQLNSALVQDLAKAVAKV
Procedure: CDK1/Cyclin B1 ADP-Glo Kinase Assay
(§2) The purpose of CDK1/Cyclin B1 assay is to evaluate the inhibition (% inhibition and IC50 values) of small molecule inhibitors by using a Luminescent based ADP-Glo assay. CDK1/Cyclin B1 catalyzes the production of ADP from ATP. ADP-Glo assay monitors ADP producing biochemical reactions. ADP-Glo is performed in 2 steps upon completion of kinase reaction: a combined termination of kinase reaction and depletion of remaining ATP in the first step, and conversion of generated ADP to ATP and the newly produced ATP to light output using luciferase/luciferin reaction in the second step. The luminescent signal generated is proportional to the ADP concentration produced and is correlated with the kinase activity. CDK1/Cyclin B1 was purchased from Carna (Cat 04-102). Typical reaction solutions (10 uL final reaction volume) contained 2% DMSO (f inhibitor), 10 mM MgCl2, 1 mM EGTA, 0.05% BSA, 2 mM DTT, 80 uM ATP (ATP Km=78.6 uM), 0.01% Brig-35, 0.75 uM substrate, and 4.917 nM CDK1/Cyclin Bl enzyme complex in 50 mM HEPES buffer at pH 7.5. The assay was initiated with the addition of ATP-containing substrate solution, following a 30-minute pre-incubation of enzyme and inhibitor at room temperature in the reaction mixture. The reaction was stopped after 90 minutes at room temperature by the addition of 10 uL of ADP-GLO Reagent. After a 90 minute incubation, 20 uL of Kinase Detection Reagent was added. Samples were incubated for 40 minutes, after which plate well luminescence was measured on a Envision microplate reader. The IC50 determinations were made from a plot of the fractional velocity as a function of inhibitor concentration fit to the 4 parameters IC50 equation.

CDK4/Cyclin D1 = CDK4/Cyclin D1 (Homo sapiens (Human), UniProt P11802); assay: CDK4/Cyclin D1 CHEF Assay (AQT0258 peptide); type: biochemical; settings: 200 uM ATP, read-out: CDK4/ CyclinD1 AQT IC50
CDK4/Cyclin D1, sequence (P11802 whole entry): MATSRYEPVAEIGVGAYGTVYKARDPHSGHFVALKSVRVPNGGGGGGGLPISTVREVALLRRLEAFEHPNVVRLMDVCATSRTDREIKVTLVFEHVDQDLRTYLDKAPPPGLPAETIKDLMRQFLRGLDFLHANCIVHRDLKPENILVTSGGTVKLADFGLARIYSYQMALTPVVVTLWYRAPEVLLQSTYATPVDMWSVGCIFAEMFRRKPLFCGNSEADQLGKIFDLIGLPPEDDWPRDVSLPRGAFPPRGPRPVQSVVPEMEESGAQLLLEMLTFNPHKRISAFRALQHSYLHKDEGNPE
CDK4/Cyclin D1, sequence (P24385 whole entry partner): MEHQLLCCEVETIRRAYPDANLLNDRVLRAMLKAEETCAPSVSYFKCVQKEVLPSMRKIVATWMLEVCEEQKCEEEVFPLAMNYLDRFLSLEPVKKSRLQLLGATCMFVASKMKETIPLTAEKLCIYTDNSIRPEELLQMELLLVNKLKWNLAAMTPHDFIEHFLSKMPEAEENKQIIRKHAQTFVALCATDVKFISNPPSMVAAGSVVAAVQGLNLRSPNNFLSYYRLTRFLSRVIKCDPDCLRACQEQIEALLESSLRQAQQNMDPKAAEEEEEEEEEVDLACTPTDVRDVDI
Source text: CDK4/Cyclin D1 CHEF Assay
The purpose of CDK4/Cyclin Dl assay is to evaluate the inhibition (% inhibition and IC50 values) of small molecule inhibitors by using a Chelation-Enhance Fluorescence (CHEF) assay. In a CHEF assay, phosphorylation of a peptide substrate results in proportional increase in fluorescence. CHEF kinase assay use peptide substrates containing a synthetic alpha-amino acid with a side chain bearing an 8-hydroxyquinoline derivative (sulfonamido-oxide, Sox). Upon phosphorylation of a nearby serine, threonine or tyrosine and in the presence of Mg(II), the spectral properties of the Sox residue are altered, emitting 485 nm wavelength light when excited with a 360 nm wavelength light source. CDK4/Cyclin D1 catalyzes the phosphoryl transfer to the SOX-labeled substrate peptide AQT0258 from Assayquant Technologies. Typical reaction solutions contained 2% DMSO (+/−inhibitor), 10 mM MgCl2, 1 mM DTT, 200 uM ATP (ATP Km=195.2 uM), 0.012% Brig-35, 10 uM AQT0258 peptide, 0.02% BSA, 1% Glycerol, 0.55 mM EGTA, 2.5 nM CDK4/Cyclin D1 in 54 mM HEPES buffer at pH 7.5. The reaction was initiated with the addition of substrate solution, following a 30-minute pre-incubation of enzyme and inhibitor at 22° C. in the reaction mix. Reactions were allowed to proceed for 3 hrs at 22° C., followed by fluorescence read of the reaction. The IC50 determinations were made from a plot of the fractional velocity as a function of inhibitor concentration fit to the 4 parameters IC50 equation.

MCF-7 cells = assay: Cell Growth Inhibition, MCF-7 (CellTiterGlo, 6 days); type: cell-based; settings: MCF-7, 6-day treatment, CellTiterGlo 2.0
Source text: as §1

CDK6/Cyclin D3 = CDK6/Cyclin D3 (Homo sapiens (Human), UniProt Q00534); assay: CDK6/Cyclin D3 ADP-Glo Kinase Assay; type: biochemical; settings: 100 uM ATP, read-out: CDK6/ CyclinD3 IC50
CDK6/Cyclin D3, sequence (Q00534 whole entry): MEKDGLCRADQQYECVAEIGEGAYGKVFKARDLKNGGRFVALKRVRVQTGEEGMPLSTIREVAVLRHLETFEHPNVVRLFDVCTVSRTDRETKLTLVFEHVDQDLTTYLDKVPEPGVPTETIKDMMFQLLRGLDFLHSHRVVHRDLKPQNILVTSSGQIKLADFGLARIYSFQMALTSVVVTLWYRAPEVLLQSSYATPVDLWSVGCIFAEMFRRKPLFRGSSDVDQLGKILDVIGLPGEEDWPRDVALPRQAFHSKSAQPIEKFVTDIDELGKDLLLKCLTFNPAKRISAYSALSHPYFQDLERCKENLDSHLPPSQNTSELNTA
CDK6/Cyclin D3, sequence (P30281 whole entry partner): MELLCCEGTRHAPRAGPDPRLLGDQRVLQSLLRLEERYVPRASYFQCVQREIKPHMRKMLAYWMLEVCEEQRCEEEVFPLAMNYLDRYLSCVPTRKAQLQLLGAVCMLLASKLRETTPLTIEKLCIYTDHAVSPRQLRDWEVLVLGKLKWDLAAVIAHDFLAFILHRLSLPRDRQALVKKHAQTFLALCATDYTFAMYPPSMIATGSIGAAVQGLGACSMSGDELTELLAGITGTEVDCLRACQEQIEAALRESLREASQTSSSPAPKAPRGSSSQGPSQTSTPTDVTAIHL
Procedure: CDK6/Cyclin D3 ADP-Glo Kinase Assay
as §2, with “of the CDK6/Cyclin D3” for “of CDK1/Cyclin B1”, “values) in the presence” for “values)”, “assay. CDK6/Cyclin D3” for “assay. CDK1/Cyclin B1”, “activity. CDK6/Cyclin D3” for “activity. CDK1/Cyclin B1”, “from Carna. […]” for “from Carna (Cat 04-102). Typical reaction solutions (10 uL final reaction volume) contained 2% DMSO (f inhibitor), 10 mM MgCl2, 1 mM EGTA, 0.05% BSA, 2 mM DTT, 80 uM ATP (ATP Km=78.6 uM), 0.01% Brig-35, 0.75 uM substrate, and 4.917 nM CDK1/Cyclin Bl enzyme complex in 50 mM HEPES buffer at pH 7.5.”, “a 90-minute” for “a 90 minute”

Row | IC50 (OVCAR-3 cells; Homo sapiens, 144 h) | IC50 [1] | IC50 (CDK1/Cyclin B1) | IC50 (CDK4/Cyclin D1) | IC50 (MCF-7 cells; Homo sapiens, MCF7, 144 h) | IC50 (CDK6/Cyclin D3) | IC50 (OVCAR-3 cells) | IC50 (MCF-7 cells) | SMILES
1 | 200 to 500 nM | < 200 nM | < 200 nM | < 200 nM | 200 to 500 nM | < 200 nM |  |  | CS(=O)(=O)N1CCC(Nc2ncc3cc(C(F)F)cc(C4CC5(CCNC5)C4)c3n2)CC1 (stereo not drawn) [Example 70, 6-(difluoromethyl)-N-(1-(methylsulfonyl)piperidin-4-yl)-8-(6-azaspiro[3.4]octan-2-yl)quinazolin-2-amine]
2 | 500 to 2000 nM | < 200 nM | 500 to 2000 nM | < 200 nM | 500 to 2000 nM | < 200 nM |  |  | CS(=O)(=O)N1CCC(Nc2ncc3cccc(N4CC5(CNCC5(F)F)C4)c3n2)CC1 [Example 111, 8-(8,8-difluoro-2,6-diazaspiro[3.4]octan-2-yl)-N-(1-(methylsulfonyl)piperidin-4-yl)quinazolin-2-amine]
3 | < 200 nM | < 200 nM | < 200 nM | < 200 nM | 200 to 500 nM | < 200 nM |  |  | CS(=O)(=O)N1CCC(Nc2ncc3cc(C(F)F)cc(C4CC5(C4)CN(CC(F)(F)CO)C5)c3n2)CC1 [Example 112, 3-(6-(6-(difluoromethyl)-2-((1-(methylsulfonyl)piperidin-4-yl)amino)quinazolin-8-yl)-2-azaspiro[3.3]heptan-2-yl)-2,2-difluoropropan-1-ol]
4 |  | > 2000 nM | > 2000 nM | 200 to 500 nM |  | > 2000 nM | > 2000 nM | > 2000 nM | CN1C[C@@H]2C(Nc3ncc4cc(C(F)F)cc(N5CCC6(CCN(S(C)(=O)=O)C6)C5)c4n3)[C@@H]2C1 (stereo partly drawn) [Example 56, 6-(difluoromethyl)-N-((1R,5S,6s)-3-methyl-3-azabicyclo[3.1.0]hexan-6-yl)-8-(7-(methylsulfonyl)-2,7-diazaspiro[4.4]nonan-2-yl)quinazolin-2-amine]
5 | > 2000 nM | < 200 nM | 200 to 500 nM | < 200 nM | > 2000 nM | 200 to 500 nM |  |  | O=S(=O)(N1CCC(Nc2ncc3cccc(N4CC5(CNCCC5(F)F)C4)c3n2)CC1)C1(C(F)F)CC1 [Example 105, 8-(9,9-difluoro-2,6-diazaspiro[3.5]nonan-2-yl)-N-(1-((1-(difluoromethyl)cyclopropyl)sulfonyl)piperidin-4-yl)quinazolin-2-amine]
6 | 500 to 2000 nM | < 200 nM | 200 to 500 nM | < 200 nM | 200 to 500 nM | < 200 nM |  |  | CS(=O)(=O)N1CCC(Nc2ncc3cc(C(F)F)cc(N4CC5(C4)CN(C4CC4)C5)c3n2)CC1 [Example 69, 8-(6-cyclopropyl-2,6-diazaspiro[3.3]heptan-2-yl)-6-(difluoromethyl)-N-(1-(methylsulfonyl)piperidin-4-yl)quinazolin-2-amine]
7 | > 2000 nM | < 200 nM | 500 to 2000 nM | < 200 nM | 500 to 2000 nM | < 200 nM |  |  | CS(=O)(=O)N1CCC(Nc2ncc3cc(C(F)(F)F)cc(N4CC5(CNCC5(F)F)C4)c3n2)CC1 [Example 116, 8-(8,8-difluoro-2,6-diazaspiro[3.4]octan-2-yl)-N-(1-(methylsulfonyl)piperidin-4-yl)-6-(trifluoromethyl)quinazolin-2-amine]
8 | 200 to 500 nM | < 200 nM | < 200 nM | < 200 nM | 500 to 2000 nM | < 200 nM |  |  | CC1(S(=O)(=O)N2CCC(Nc3ncc4cc(C(F)F)cc(N5CC6(CCNC6)C5)c4n3)CC2)CC1 [Example 87, 6-(difluoromethyl)-N-(1-((1-methylcyclopropyl)sulfonyl)piperidin-4-yl)-8-(2,6-diazaspiro[3.4]octan-2-yl)quinazolin-2-amine]

Row | SMILES | IC50 (OVCAR-3 cells; Homo sapiens, 144 h) | IC50 [1] | IC50 (CDK1/Cyclin B1) | IC50 (CDK4/Cyclin D1) | IC50 (MCF-7 cells; Homo sapiens, MCF7, 144 h) | IC50 (CDK6/Cyclin D3) | IC50 (OVCAR-3 cells) | IC50 (MCF-7 cells)
9 | CS(=O)(=O)N1CCC(Nc2ncc3cc(C(F)F)cc(C4CC5(CCN(CC(F)F)C5)C4)c3n2)CC1 (stereo not drawn) [Example 100, 8-(6-(2,2-difluoroethyl)-6-azaspiro[3.4]octan-2-yl)-6-(difluoromethyl)-N-(1-(methylsulfonyl)piperidin-4-yl)quinazolin-2-amine] | 500 to 2000 nM | < 200 nM | < 200 nM | < 200 nM | 200 to 500 nM | < 200 nM |  | 
